Results from ChEMBL document CHEMBL5104219, “Pyrazolidine Carboxamide Analogs as Selective Agonists of the Cannabinoid 2 Receptor” (ACS Med Chem Lett, 2022).

Assays:
Type in all cases: functional, cell-based
[1] = target: T1, Cannabinoid receptor 2 (Homo sapiens, UniProt P34972); assay: Agonist activity at human CB2 receptor expressed in CHO cells assessed as inhibition of accumulation of forskolin-stimulated cAMP level by measuring maximum activation incubated for 35 mins by chemiluminescence based assay relative to control; conditions: filed as agonist
[2] = target: T1, Cannabinoid receptor 2; assay: Agonist activity at human CB2 receptor expressed in PathHunter CHO-K1 CNR2 beta-arrestin cells assessed as beta-arrestin recruitment incubated for 3 hrs by plate reader analysis
[3] = target: T1, Cannabinoid receptor 2; assay: Agonist activity at human CB2 receptor expressed in CHO cells assessed as inhibition of accumulation of forskolin-stimulated cAMP level incubated for 35 mins by chemiluminescence based assay

T1 sequence (P34972 whole entry): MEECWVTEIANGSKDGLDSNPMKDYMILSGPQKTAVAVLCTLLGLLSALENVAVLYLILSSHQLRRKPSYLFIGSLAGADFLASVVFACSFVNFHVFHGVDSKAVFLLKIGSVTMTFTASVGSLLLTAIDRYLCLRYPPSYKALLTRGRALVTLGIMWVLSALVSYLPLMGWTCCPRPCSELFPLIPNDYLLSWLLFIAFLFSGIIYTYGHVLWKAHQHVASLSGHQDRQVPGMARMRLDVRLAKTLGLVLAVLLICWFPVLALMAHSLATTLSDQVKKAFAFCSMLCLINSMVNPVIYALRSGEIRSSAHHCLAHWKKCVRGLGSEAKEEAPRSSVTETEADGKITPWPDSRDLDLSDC

| Structure (SMILES) | Emax [1] | EC50 [2] | EC50 [3] |
| --- | --- | --- | --- |
| Cc1nc(N2CCN(C)CC2)c2nc(-c3ccccc3Cl)n(C3CCOCC3)c2n1 | 52.6% | – | – |
| CC(C)(CO)c1cc(NC(=O)N2CCCN2c2ccc(C(F)(F)F)cc2)on1 | 99.7% | 167 nM | 42.7 nM |
| CC(C)(C)c1cc(NC(=O)N2CCCN2c2ccc(C(F)(F)F)cc2)on1 | 114% | > 1000 nM | – |
